The source of these data is PMC9323733, “Efficacy of Vafidemstat in Experimental Autoimmune Encephalomyelitis Highlights the KDM1A/RCOR1/HDAC Epigenetic Axis in Multiple Sclerosis” (Pharmaceutics, 2022).

The EC50 is the concentration needed to bring the measured effect to its halfway point. One may read the IC50 as the midpoint of a concentration-inhibition curve.

In one assay the target is T1, recombinant HDAC2 (Homo sapiens, UniProt Q92769).
T1 construct: purchased BPS Bioscience 50002
Description: HDAC2 fluorimetric biochemical assay. As to the method:
HDAC2 activity was determined using a fluorimetric assay at BPS Bioscience (San Diego, CA, USA). Compounds were dissolved in DMSO (Sigma), and serial dilutions were further diluted in HDAC assay buffer (BPS). These working solutions were incubated in duplicate at room temperature for 3 h in a mixture containing HDAC assay buffer, BSA (Fisher Scientific), and recombinant HDAC2 (BPS). The enzymatic reactions were initiated by the addition of a fluorogenic, acetylated peptide substrate (BPS) and proceeded for 30 min at 37 °C. Then, HDAC assay developer (BPS) was added, and after further incubation at room temperature, fluorescence intensity was measured at an excitation of 360 nm and an emission of 460 nm using a Tecan Infinite M1000 microplate reader. Trichostatin A (TSA, Selleckchem, Houston, TX, USA) was used as a reference inhibitor.
For the biochemical assays, the fluorescence signal relative to the background (assay mixture in the absence of the enzyme) was subtracted from each fluorescent intensity data. Activity in the presence of compound was expressed as a percentage of fluorescence intensity in the absence of the compound.

In the next assay the test system is SH-SY5Y cells. Description: Human H3 acetylation assay (Western blot), cellular HDAC activity. The format is cell-based. The settings on record: 1 and 0.1 µM, 2 and 6 h. As to the method: Human H3 acetylation assays: for the determination of global and K9-specific acetylation levels, 500,000 SH-SY5Y cells were seeded in 6-well plates in DMEM/F12 1:1 (Sigma), supplemented with 2 mM glutamine (LabClinics) and 10% FBS (Sigma) and incubated at 37 °C and 5% CO2 in a humid atmosphere. […] After 2 and 6 h of treatment, cells were harvested and centrifuged at 250× g for 4 min at room temperature and cell pellets used for total histone extraction with EpiQuik Total Histone Extraction Kit (Epigentek, Farmingdale, NY, USA) following manufacturer’s instructions. 1 µg of histone extracts were run in MOPS buffer in 12% PAGE (Life Technologies, Carlsbad, CA, USA) and transferred with the iBlot system to nitrocellulose membranes. Transferred blots were stained with the Ponceau S solution (Sigma) and scanned with an Epson Perfection V600 Photo Scanner. Membranes were blocked in blocking buffer (5% skimmed milk in PBS-Tween 0.1%) for 1 h at room temperature, and after blocking blots were incubated with rabbit polyclonal anti-H3K9Ac (1:2000 dilution, Abcam, Cambridge, UK) and rabbit polyclonal anti-H3ac (K9 + K14 + K18 + K23 + K27) (1:2000 dilution, Abcam) overnight at 4 °C in ablocking buffer. […]
On the technique in general: A western blot detects proteins with antibodies after separation by electrophoresis.

The target in another assay is T2, human S1P1 receptor (Homo sapiens, UniProt P21453).
T2 construct: host or cells: CHO cells
T2 sequence (P21453 whole entry): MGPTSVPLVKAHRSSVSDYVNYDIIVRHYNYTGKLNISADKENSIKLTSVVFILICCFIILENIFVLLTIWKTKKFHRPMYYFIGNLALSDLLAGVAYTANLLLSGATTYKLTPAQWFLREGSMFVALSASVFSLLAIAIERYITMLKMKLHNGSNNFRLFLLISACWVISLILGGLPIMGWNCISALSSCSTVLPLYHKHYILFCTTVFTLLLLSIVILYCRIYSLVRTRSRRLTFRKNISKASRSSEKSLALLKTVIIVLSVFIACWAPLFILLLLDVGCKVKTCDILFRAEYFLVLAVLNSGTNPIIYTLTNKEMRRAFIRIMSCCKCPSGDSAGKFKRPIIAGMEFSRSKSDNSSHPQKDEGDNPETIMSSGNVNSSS
Nature of the assay: CellKey impedance assay in CHO cells, agonistic and antagonistic effect. The format is cell-based. The method, then:
Cell on impedance modulation, using the CellKey (Cellular Dielectric Spectroscopy) detection method (CellKey 96, MDS Sciex, Concord, ON, Canada) at Eurofins Pharma Discovery Services (Celle-Lévescault, France). CHO cells were seeded onto a 96-well plate at 15.104 cells/well in HBSS buffer (Invitrogen), 20 mM HEPES (Invitrogen), 10% FCS (Invitrogen), and 0.1% BSA (Sigma), allowed to equilibrate for 60 min at 28 °C. DMSO solutions of compounds were diluted in HBSS and 0.1% BSA. Plates were placed onto the system, and measurements were made at a temperature of 28 °C. To measure the agonistic effect, compounds and controls in duplicate were added simultaneously to all of the wells using an integrated fluidics system. Impedance measurements were monitored for 10 min after ligand addition. […] To measure the antagonistic effect, compounds and controls in duplicate were pre-incubated for 15 min before the addition of the reference agonist S1P at 0.01 µM (EC80). Impedance measurements were monitored for 10 min.
Evaluation of the agonistic (a) and antagonist (b) effect of the compounds on the human S1P1 receptor. […] Data are expressed as percentage of control (no compound) activity, n = 2. TSA was used as a control; (d) Cellular HDAC activity assay. […] SAHA was used as a control. Ponceau S staining was used as loading control. Veh: Vehicle. […] TSA: Trichostatin A. SAHA: suberoylanilide hydroxamic acid.

In another assay the target is KDM1A (Homo sapiens, UniProt O60341). Description: In vitro potency, KDM1A inhibition. The format is biochemical.
Assay [1] has as its system C57BL/6 mice with chronic EAE. Nature of the assay: Chronic EAE induced by MOG35–55, clinical score. In kind it is in vivo, mouse. As to the method: Mice also received i.p. injections of 200 ng of pertussis toxin on days 0 and 2 [32]. Immunized mice were randomly distributed in different groups. […] MPTP is a prodrug which is converted to the neurotoxin 1-methyl-4-phenylpyridinium (MPP+) by MAO-B in vivo.
Compounds were administered once daily for five consecutive days in two cycles, from day 12 to 16 and from day 19 to 23 post-immunization. […] HPβCD was included to facilitate dissolution. Mice were scored daily for signs of EAE according to the following clinical scoring system: 0, no clinical signs; 0.5, partial loss of tail tonicity; 1, complete loss of tail tonicity; 2, flaccid tail and abnormal gait; 3, complete hind leg paralysis; 4, hind leg paralysis with hind body paresis; 5, hind and foreleg paralysis; and 6, death. Intermediate phenotypes were scored as a half integer. Animals were sacrificed when they kept a score of 5 more than 24 h. Investigators which administered the compounds and scored the animals were blinded to the treatments.

T1 sequence (Q92769 whole entry): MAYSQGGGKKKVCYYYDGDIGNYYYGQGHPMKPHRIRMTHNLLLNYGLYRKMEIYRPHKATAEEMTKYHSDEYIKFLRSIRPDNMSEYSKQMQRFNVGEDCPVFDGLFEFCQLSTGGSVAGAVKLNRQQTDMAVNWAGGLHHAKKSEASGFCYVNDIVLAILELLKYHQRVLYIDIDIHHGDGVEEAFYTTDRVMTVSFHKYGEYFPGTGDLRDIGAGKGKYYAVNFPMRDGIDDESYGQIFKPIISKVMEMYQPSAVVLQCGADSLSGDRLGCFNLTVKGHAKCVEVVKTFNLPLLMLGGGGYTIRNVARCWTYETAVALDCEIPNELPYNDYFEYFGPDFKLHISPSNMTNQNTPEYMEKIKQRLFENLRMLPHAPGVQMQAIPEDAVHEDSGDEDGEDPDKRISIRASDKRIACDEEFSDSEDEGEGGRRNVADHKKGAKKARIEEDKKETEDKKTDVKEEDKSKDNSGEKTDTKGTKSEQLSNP

Turning to `CCCCCCCCc1ccc(CC[C@](N)(CO)COP(=O)(O)O)cc1` [FTY720-P, Fingolimod Phosphate], the “impact on recombinant HDAC2 activity” value at recombinant HDAC2 is listed as “unable to confirm the previous studies reporting that FTY720 or FTY720-P had any significant impact”. For the same compound, the “impact on cellular HDAC activity (acetylated H3 or H3K9 levels)” value in the assay on SH-SY5Y cells is recorded as “unable to confirm the previous studies reporting that FTY720 or FTY720-P had any significant impact”.
Consider `CCCCCCCCCCCCC/C=C/[C@@H](O)[C@@H](N)COP(=O)(O)O` [S1P], for which the “EC80, reference agonist” value on human S1P1 receptor (concentration used in antagonist mode) amounted to 10 nM. Also, the EC50 at human S1P1 receptor (impedance, agonistic effect, read-out: EC50, reference agonist) turned out to be 1 nM.
In the case of `CCCCCCCCc1cccc(NC(=O)[C@H](N)COP(=O)(O)O)c1` [VPC23019], on human S1P1 receptor (impedance, vs S1P at 0.01 µM, read-out: IC50, reference antagonist), the IC50 is 27 nM.
Consider `C#CCN[C@@H]1CCc2ccccc21` [rasagiline, reference compound], for which the IC50 against KDM1A was more than 100000 nM. Also, the “mice with no or only mild clinical signs at the end of the study” value in assay [1] (EAE experiment 2) is on record as 44%. The “effect on clinical course / disease severity” value in assay [1] (EAE experiment 2 (mild), p.o. ORY-2001 0.05, 0.5, 1 mg/kg, ORY-LSD1 90, 180 µg/kg, rasagiline 3 mg/kg) is recorded as “showed no overall protective effect”. In addition, the “animals with severe signs (maximum clinical score 3.5–6)” value in assay [1] (EAE experiment 2, highest dose tested) was determined as 33%. Besides, the “onset of clinical signs” value in assay [1] (EAE experiment 2, rasagiline 3 mg/kg) is on record as “slight delay of the onset of the clinical signs”.
